The structures appear in SMILES notation.

What is called chromatographic logP is lipophilicity estimated from chromatographic retention.

Data set [1] is described as follows: logP determination by HPLC on reversed-phase column (EEC Directive 79/831 annex V.A8). The data set is classed as physicochemical. Here is the method:
Calibration was carried out using unbranched alkan-2-ones (having 3 to 16 carbon atoms) with known logP values (determination of logP values by the retention times using linear interpolation between two successive alkanone).

Data set [2] has as its system green peach aphid (Myzus persicae). The experiment in a line: Myzus test (MYZUPE spray treatment). The data set is classed as in vivo. Conditions: 500 g/ha, spray treatment of Chinese cabbage disks, 100% = all aphids killed. Here is the method:
Myzus Test (MYZUPE Spray Treatment)
To produce a suitable preparation of active compound, 1 part by weight of active compound is mixed with the stated amounts of solvents and emulsifier, and the concentrate is diluted with emulsifier-containing water to the desired concentration.
Disks of Chinese cabbage (Brassica pekinensis) which are infested by all stages of green peach aphid (Myzus persicae) are sprayed with a preparation of active compound of the desired concentration.
(§1) After the desired period of time, the effect in % is determined. 100% means that all aphids have been killed; 0% means that none of the aphids have been killed.

The subject of data set [3] is cotton aphid (Aphis gossypii). The experiment in a line: Aphis gossypii test (APHIGO). The data set is classed as in vivo. Conditions: 100 ppm, cotton leaves dipped, 100% = all aphids killed. Here is the method: Aphis Gossypii Test (APHIGO)
To produce a suitable preparation of active compound, 1 part by weight of active compound is mixed with the stated amounts of solvent and emulsifier, and the concentrate is diluted with emulsifier-containing water to the desired concentration.
Cotton leaves (Gossypium hirsutum) which are heavily infested by the cotton aphid (Aphis gossypii) are treated by being dipped into the preparation of active compound of the desired concentration.
After the desired period of time, the kill in % is determined. 100% means that all aphids have been killed; 0% means that none of the aphids have been killed.

Data set [4] has as its system Myzus persicae. Nature of the data set: Myzus persicae (MYZUPE U). The data set is classed as in vivo. Conditions: 30 ppm, ingestion, 100% = all aphids killed. Here is the method: Myzus Persicae (MYZUPE U)
To produce a suitable preparation of active compound, the active compound is mixed with the stated amounts of solvent, and the concentrate is diluted with stained water to the desired concentration.
The Myzus persicae are provided with a preparation of active compound of the desired concentration for ingestion.
as §1

Setting [5] is: reversed-phase C18 HPLC column, HPLC, reversed-phase C 18, 43° C., acidic range (pH 2.3), marked a).
Setting [6] is: reversed-phase HPLC column, in the preparation example, pH range not marked.

Regarding `CC#CCOc1cc(-c2cscc2C)ncn1` [Example 25], the chromatographic logP in data set [1] (setting [5]) is 3.26. The “effect in % (% 5 d)” value in data set [2] was 80%. Further, in data set [3], the “kill in % (% 6 d)” value amounted to 80%.
Take `CC#CCOc1cc(-c2ccsc2)ncn1` [Example 1, 4-(2-butyn-1-yl-oxy)-6-(3-thienyl)-pyrimidine]: the chromatographic logP in data set [1] (setting [6]) came to 2.84.
In the case of `CC#CCOc1cc(-n2cc(Cl)cn2)ncn1` [Example 2, 4-butynyloxy-6-(4-chloropyrazol-1-yl)pyrimidine], the chromatographic logP in data set [1] (setting [6]) stood at 3.65.
Regarding `Clc1cc(-c2ccsc2)ncn1` [II-1, 4-chloro-6-(3-thienyl)pyrimidine], the chromatographic logP in data set [1] (setting [6]) worked out at 2.31.
Consider `CC#CCOc1cc(-c2cccs2)ncn1` [Example 6], for which the chromatographic logP in data set [1] (setting [5]) was found to be 2.95. In addition, the “effect in % (% 5 d)” value in data set [2] stood at 90%.
For `CC#CCOc1cc(-n2ccnc2)ncn1` [Example 12], the chromatographic logP in data set [1] (setting [5]) was found to be 1. The “effect in % (% 6-7 d)” value in data set [4] came to 100%.
In data set [1] (setting [5]), `CC#CCOc1cc(-n2cccn2)ncn1` [Example 8] came in with a chromatographic logP of 2.55. Besides, the “effect in % (% 5 d)” value in data set [2] was 90%.
On the same counts, the results for `CC#CCOc1cc(-c2ccccn2)ncn1` [Example 3] are 2.31 and 80%.

These data come from US20090005403A1, “Alkinyl-Oxypyrimidines Used in the Form of Pesticides” (priority 2005, published 2009).
